# Data published in ChEMBL document CHEMBL1201862, “PubChem BioAssay data set” (2004).
#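 Test compounds were applied to cells in 96-well plates for 48 hours at 5 doses. Here, GI50 denotes the concentration required for 50% inhibition of growth.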 The source made the active and inactive calls. No stated cut-off is given here; in the data, active = GI50 up to about 1.1 µM and inactive = higher.
# Columns and labels:
# Experiment in all cases: inhibition of tumour cell growth, NCI panel, 48 h
# [1] = test system: KM-20L2
# [2] = test system: RXF 631
# [3] = test system: DLD-1
# [4] = test system: DMS-114
# [5] = test system: LXFL 529
# [6] = test system: DMS-273
# [7] = test system: SNB-78
# [8] = test system: XF498
# [9] = test system: HOP-18
Compound,GI50 [1],GI50 [2],GI50 [3],GI50 [4],GI50 [5],GI50 [6],GI50 [7],GI50 [8],GI50 [9]
CN(C)c1ccc(/C=C(\NC(=O)c2ccccc2)c2nc3ccc4c(c3[nH]2)C(=O)c2ccccc2C4=O)cc1,> 100 µM (inactive),34.7 µM (inactive),9.48 µM (inactive),21.7 µM (inactive),39.6 µM (inactive),27.2 µM (inactive),75.7 µM (inactive),–,–
COc1ccc(NC(=O)C(C)Oc2ccc(OCC3CCCCC3)cc2)cc1 (stereo not given),–,–,64 µM (inactive),46.7 µM (inactive),51.4 µM (inactive),42.3 µM (inactive),50.9 µM (inactive),85.7 µM (inactive),–
COc1ccc(OC)c2[nH]c(Sc3c([N+](=O)[O-])ncn3C)nc12,20.4 µM (inactive),18.5 µM (inactive),20.6 µM (inactive),17.4 µM (inactive),13 µM (inactive),11.8 µM (inactive),20.9 µM (inactive),17.3 µM (inactive),–
O=C(CO)CC(=O)C(=O)Nc1nc([N+](=O)[O-])cs1,> 100 µM (inactive),> 100 µM (inactive),> 100 µM (inactive),> 100 µM (inactive),> 100 µM (inactive),> 100 µM (inactive),> 100 µM (inactive),–,> 100 µM (inactive)
COC(=O)C(Cc1nc2ccccc2nc1O)C(=O)C(=O)Nc1ccc([N+](=O)[O-])cc1[N+](=O)[O-] (stereo not given),20.4 µM (inactive),24.5 µM (inactive),19.5 µM (inactive),16.1 µM (inactive),12.8 µM (inactive),17.6 µM (inactive),38.4 µM (inactive),20.1 µM (inactive),16.8 µM (inactive)
CCC1(O)C(=O)OCc2c1cc1n(c2=O)Cc2cc3cc(OC)c(OC)cc3nc2-1 (stereo not given),> 100 µM (inactive),–,–,12.8 µM (inactive),> 100 µM (inactive),–,–,34.3 µM (inactive),56.8 µM (inactive)
CC1(C)CC(C)(C)CC(O)(C2(O)CC(C)(C)CC(C)(C)C2)C1,> 100 µM (inactive),–,–,> 100 µM (inactive),> 100 µM (inactive),> 100 µM (inactive),–,> 100 µM (inactive),–
NCC(=O)OCN1C(=O)C2C3C=CC(C2C1=O)C1C2C(=O)N(COC(=O)CN)C(=O)C2C31 (stereo not given),28.6 µM (inactive),–,25.1 µM (inactive),16.2 µM (inactive),36.2 µM (inactive),19.8 µM (inactive),53.6 µM (inactive),31.4 µM (inactive),25.9 µM (inactive)
COc1ccc(OC(C(=O)O)c2ccccc2)c2c1CCCC2=O (stereo not given),> 100 µM (inactive),> 100 µM (inactive),> 100 µM (inactive),> 100 µM (inactive),> 100 µM (inactive),> 100 µM (inactive),> 100 µM (inactive),> 100 µM (inactive),> 100 µM (inactive)
CC(=O)N(O)Cc1ccccc1,> 100 µM (inactive),> 100 µM (inactive),> 100 µM (inactive),> 100 µM (inactive),> 100 µM (inactive),–,> 100 µM (inactive),> 100 µM (inactive),–
COc1cc(/C=C2/C(=O)N(C(=O)c3ccccc3O)N=C2C)cc(OC)c1OC,45.7 µM (inactive),–,0.484 µM (active),0.682 µM (active),0.555 µM (active),–,0.277 µM (active),1.9 µM (inactive),–
NC(=S)N/N=C(/CC(=O)c1ccccc1)C(=O)Nc1ccc(Cl)c(Cl)c1,> 100 µM (inactive),–,83.6 µM (inactive),71.6 µM (inactive),83.4 µM (inactive),76.6 µM (inactive),> 100 µM (inactive),–,> 100 µM (inactive)
O=C(O)[C@@H]1CCCC[C@@H]1C(=O)N(C1CCCCC1)C1CCCCC1,> 100 µM (inactive),> 100 µM (inactive),> 100 µM (inactive),> 100 µM (inactive),> 100 µM (inactive),> 100 µM (inactive),> 100 µM (inactive),–,–
Cn1c(-c2ccccc2)c/c(=N\NS(C)(=O)=O)c2cc(S(=O)(=O)O)ccc21,> 100 µM (inactive),–,> 100 µM (inactive),> 100 µM (inactive),> 100 µM (inactive),> 100 µM (inactive),> 100 µM (inactive),> 100 µM (inactive),> 100 µM (inactive)
c1ccc(CN(Cc2ccccn2)Cn2cccn2)nc1,51.5 µM (inactive),38 µM (inactive),30.2 µM (inactive),22.1 µM (inactive),–,35.7 µM (inactive),> 100 µM (inactive),60 µM (inactive),–
Cc1oc2c(c1C(=O)c1ccccc1)C(=O)c1ccccc1C2=O,17.7 µM (inactive),17.7 µM (inactive),5.02 µM (inactive),2.45 µM (inactive),1.62 µM (inactive),8.34 µM (inactive),> 100 µM (inactive),2.32 µM (inactive),16.6 µM (inactive)
CCc1oc2ccc(OC)c3c2c1C=CC=C3,–,–,> 100 µM (inactive),–,> 100 µM (inactive),> 100 µM (inactive),> 100 µM (inactive),–,–
Cc1nc2c(n1Cc1ccc(F)cc1)C(=O)c1ccccc1C2=O,38.5 µM (inactive),–,–,–,13.5 µM (inactive),6.43 µM (inactive),> 100 µM (inactive),29.9 µM (inactive),–
CCN(C(=N)C#N)c1ccccc1,> 100 µM (inactive),> 100 µM (inactive),> 40.7 µM (inactive),> 54.8 µM (inactive),> 100 µM (inactive),> 42.5 µM (inactive),–,–,> 100 µM (inactive)
CCCN(CCCC(NC(C)=O)C(=O)NCc1ccccc1)C(=O)NC (stereo not given),> 100 µM (inactive),> 100 µM (inactive),> 100 µM (inactive),> 100 µM (inactive),> 100 µM (inactive),> 100 µM (inactive),> 100 µM (inactive),–,–
Cc1ccc(NC(=O)C(=O)C(C(=O)c2ccc3ccccc3c2)C2OC(=O)c3ccccc32)cc1C (stereo not given),35.2 µM (inactive),–,17.7 µM (inactive),9.35 µM (inactive),8.36 µM (inactive),5.87 µM (inactive),–,3.29 µM (inactive),0.743 µM (active)
CCCCC(C(=O)C(=O)NC1C2CC3CC(C2)CC1C3)C(=O)C(C)C (stereo not given),> 100 µM (inactive),> 100 µM (inactive),–,> 100 µM (inactive),> 100 µM (inactive),> 100 µM (inactive),> 100 µM (inactive),> 100 µM (inactive),> 100 µM (inactive)
O=C(/C=C/c1ccccc1Cl)NC1C=Nc2ccc([N+](=O)[O-])cc2NC1 (stereo not given),> 100 µM (inactive),–,48.6 µM (inactive),48.4 µM (inactive),43.2 µM (inactive),> 100 µM (inactive),> 100 µM (inactive),> 100 µM (inactive),> 100 µM (inactive)
CCOC(=O)N1C/C(=C\c2ccc(N(C)C)cc2)C(=O)/C(=C/c2ccc(N(C)C)cc2)C1,> 100 µM (inactive),> 100 µM (inactive),> 100 µM (inactive),> 100 µM (inactive),> 100 µM (inactive),> 100 µM (inactive),> 100 µM (inactive),–,> 100 µM (inactive)
